# Results: patent US11730817B2, “Pro-cyclic dinucleotides and pro-cyclic dinucleotide conjugates for cytokine induction” (INVIVOGEN, priority 2017, dated 2023)
# “Also recorded” adds a separate entry of the source.
# What was measured:
# [1] = test system: STING; assay: ISG activity of protein:CDN and antigen:CDN conjugates in reporter cell lines; format: cell-based
# Text: In the present invention, we evaluated using reporter cell lines the ISG activity of protein:CDN conjugates using in vitro conditions favorable to the release of both components.
# [2] = test system: Type I IFNs; assay: Whole-blood assay, type I IFN induction (HEK-Blue IFN-α/β-KO-STING readout); format: cell-based, human; conditions: relative to CL656 at 1 μM
# [3] = molecular target: STING (Homo sapiens, UniProt Q86WV6, G230A/H232R/R293Q/R71H); assay: ISG54 (IRF pathway) reporter assay in THP1-Dual cells
# STING (Homo sapiens, UniProt Q86WV6, G230A/H232R/R293Q/R71H), sequence (Q86WV6 whole entry R71H/G230A/H232R/R293Q): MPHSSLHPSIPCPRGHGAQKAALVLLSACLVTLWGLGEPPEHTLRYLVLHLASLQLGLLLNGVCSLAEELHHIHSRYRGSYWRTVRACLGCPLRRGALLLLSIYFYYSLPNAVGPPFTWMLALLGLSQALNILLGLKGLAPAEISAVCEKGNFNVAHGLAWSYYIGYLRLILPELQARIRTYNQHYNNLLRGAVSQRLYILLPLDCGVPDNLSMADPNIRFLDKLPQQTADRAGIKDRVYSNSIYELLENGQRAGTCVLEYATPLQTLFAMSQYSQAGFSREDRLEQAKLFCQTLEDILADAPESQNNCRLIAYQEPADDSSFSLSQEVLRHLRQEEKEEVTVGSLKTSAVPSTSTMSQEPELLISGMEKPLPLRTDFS
# [4] = test system: Type I IFNs; assay: Whole-blood assay, type I IFN induction (HEK-Blue IFN-α/β-KO-STING readout); format: cell-based, human; conditions: for induction of type I IFNs in whole-blood assay (comparison in words): healthy human donors, dose-response; for EC50: whole blood assay, type I IFN, read-out: EC50 (μM) IFN in WBA
# Text: Type I IFNs: HEK-Blue™ IFN-α/β-KO-STING: These cells, in which the STING gene has been inactivated, are derived from HEK293 cell line known as HEK-Blue™ IFN-α/β (InvivoGen catalog code: hkb-ifnab). HEK-Blue™ IFN-α/β cells enable detection of bioactive human type I IFNs through monitoring of activation of the […]. These cells were generated by stable transfection of HEK293 cells with the human STAT2 and IRF9 genes to obtain a fully active Type-I IFN signaling pathway. The other genes of the pathway (IFNAR1, IFNAR2, JAK1, TyK2 and STAT1) are naturally expressed in sufficient amounts. The cells were further transfected with a SEAP reporter gene under control of an IFNα/β-inducible ISG54 promoter. This promoter comprises five IFN-stimulated response elements (ISREs) fused to a minimal promoter of the human ISG54 gene, which is unresponsive to activators of the NF-κB or AP-1 pathways. Stimulation of HEK-Blue™ IFN-α/β cells with human IFN-α or IFN-β activates the JAK/STAT/ISGF3 pathway and subsequently induces production of SEAP. Production of type I IFNs in these cells is measured using QUANTI-Blue™.
# Briefly, the samples were collected by venipuncture into sodium heparin tubes at the time of donation. The samples were analyzed for rhesus (Rh), blood group, hematocrit and serological status (AgHBS, HIV, HCV, HTLV, HBC, CMV, Syph). The tubes were picked up on the day of collection and subsequently tested (blood analysis, and treatment with test items) on the same day.
# Each blood sample was diluted (1:2 [v/v]) in RPMI medium and aliquoted into 96-well plates (180-μL wells) containing either CDN (√10-fold serial dilution starting from 50 μM). The plates were incubated at 37° C. in a 5% CO2 incubator for 18 hours. Then, the supernatants were collected, transferred into the corresponding wells of round-bottom 96-well plates, and either stored at −80° C., or immediately tested in the appropriate reporter cell line.
# A new 96-wells plate was prepared for each reporter cell lines tested, as follows: 10 μL of supernatant from the previous plate were added to the corresponding well in the new reporter cell plate. Then, a 190-μL aliquot of cells of the desired reporter cell line, previously harvested in medium containing heat-inactivated serum and counted, was added to each well (approximately 50,000 cells/well), and the plate was incubated for approximately 20 hours. The desired cytokine induction activity was determined using the QUANTI-Blue™ assay, as previously described. Briefly, 20 μL of supernatant from the previously incubated plate was transferred to the corresponding well of a new 96-well plate in which 180 μL of QUANTI-Blue™ reagent had previously been added.
# [5] = Lipid-based nanoparticle formation (PdI, Z Ave); format: physicochemical; conditions: for Z Ave (nm): lipid BAM-CDN particles; for PdI: polydispersity index of lipid BAM-CDN
# [6] = molecular target: T1, STING (Mus musculus, UniProt Q3TBT3); assay: ISG reporter assay in RAW-Lucia ISG cells
# T1 sequence (Q3TBT3 1-378): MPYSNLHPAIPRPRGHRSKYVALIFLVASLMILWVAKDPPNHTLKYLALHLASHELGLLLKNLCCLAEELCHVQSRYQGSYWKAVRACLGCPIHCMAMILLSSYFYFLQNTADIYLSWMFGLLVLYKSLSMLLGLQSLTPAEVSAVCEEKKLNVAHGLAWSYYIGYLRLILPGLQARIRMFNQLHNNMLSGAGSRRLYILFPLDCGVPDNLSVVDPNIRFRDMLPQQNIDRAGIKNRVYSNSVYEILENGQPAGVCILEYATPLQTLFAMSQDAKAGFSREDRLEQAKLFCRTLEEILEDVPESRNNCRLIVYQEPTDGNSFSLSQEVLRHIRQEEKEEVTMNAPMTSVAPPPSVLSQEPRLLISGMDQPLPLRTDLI
# [7] = molecular target: PDL1 (Homo sapiens, UniProt Q9NZQ7); assay: Antigen binding ELISA of anti-PDL1mAb:CDN conjugate; conditions: relative to anti PDL1 at 10 μg/mL
# PDL1, sequence (Q9NZQ7 19-290, species assumed): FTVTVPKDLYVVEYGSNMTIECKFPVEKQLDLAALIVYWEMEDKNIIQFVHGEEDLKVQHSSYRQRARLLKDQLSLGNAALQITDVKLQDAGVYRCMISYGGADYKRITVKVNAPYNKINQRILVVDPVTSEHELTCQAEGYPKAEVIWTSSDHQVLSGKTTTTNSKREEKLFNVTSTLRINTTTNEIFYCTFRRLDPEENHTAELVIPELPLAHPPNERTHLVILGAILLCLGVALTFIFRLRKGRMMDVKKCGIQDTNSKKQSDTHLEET
# Text: We performed Whole Blood Assay on healthy human donors to evaluate the ability of the anti-PDL1mAb:CDN conjugate (Compound 47) to induce type I interferons as described previously in Example 2.2. The binding properties of the anti-PDL1mAb:CDN conjugate have been evaluated using ELISA.
Molecule,EC50 [4],Z Ave (nm) [5],PdI [5],also measured
"Nc1ncnc2c1ncn2[C@@H]1O[C@@H]2COP(=O)(S)O[C@H]3[C@@H](F)[C@H](n4cnc5c(=O)[nH]cnc54)O[C@@H]3COP(=O)(S)O[C@H]2[C@H]1F (stereo partly drawn) [CL656, 3′3′-cAIM(PS)2 Difluor (Rp/Sp)]",,,,"ISG activity @ 50 μg/mL (% of CL656 @ 1 μM) ([1]; antigen:CDN conjugates): 100%; ISG activity @ 50 μg/mL (% of parental CND @ 1 μM) ([1]; in vitro conditions favorable to release of both components): 100%; IFN activity @ 50 μg/mL in WBA (% of CL656 @ 1 μM) [2]: 100%; EC50 [3]: 1000 nM; Fold ISG induction vs unstimulated @10 μM ([3]; 10 μM, THP1-Dual cells): 215 fold"
"Nc1ncnc2c1ncn2[C@@H]1O[C@@H]2COP(=O)(S)O[C@H]3C[C@H](n4cnc5c(=O)[nH]cnc54)O[C@@H]3COP(=O)(S)O[C@H]2[C@H]1F (stereo partly drawn) [CL702, reference compound]",,,,induction of type I IFNs in whole-blood assay (comparison in words) [4]: superior induction of type I interferons compared to the reference compound 2′3′-cGAMP
CC(C)[C@H](NC(=O)OC(C)(C)C)C(=O)N[C@@H](CCCNC(N)=O)C(=O)Nc1ccc(CSP2(=O)OC[C@H]3O[C@@H](n4cnc5c(=O)[nH]cnc54)C[C@@H]3OP(=O)(SCc3ccc(NC(=O)[C@H](CCCNC(N)=O)NC(=O)[C@@H](NC(=O)OC(C)(C)C)C(C)C)cc3)OC[C@H]3O[C@@H](n4cnc5c(N)ncnc54)[C@H](F)[C@@H]3O2)cc1 (stereo partly drawn) [CL793],,,,induction of type I IFNs in whole-blood assay (comparison in words) [4]: superior induction of type I interferons compared to the reference compound 2′3′-cGAMP
CCCCCCCC(=O)N[C@H](C(=O)N[C@@H](C)C(=O)Nc1ccc(CSP2(=O)OC[C@H]3O[C@@H](n4cnc5c(N)ncnc54)[C@H](F)[C@@H]3OP(=O)(O)OC[C@H]3O[C@@H](n4cnc5c(O)ncnc54)C[C@@H]3O2)cc1)C(C)C (stereo partly drawn) [CL821],7.1 µM,54.9 nm,0.27,"EC50 rank order (lipid chain length) ([3]; FIG. 6, human or murine reporter cell): EC50 (CL821=C8-CL797)<EC50 (CL820=C4-CL797)"
CCCCCCCCCCCCCC(=O)OC(CCCCCCCCCCC)CC(=O)N[C@H](C(=O)N[C@@H](C)C(=O)Nc1ccc(CSP2(=O)OC[C@H]3O[C@@H](n4cnc5c(N)ncnc54)[C@H](F)[C@@H]3OP(=O)(O)OC[C@H]3O[C@@H](n4cnc5c(O)ncnc54)C[C@@H]3O2)cc1)C(C)C (stereo partly drawn) [CL838],0.009 µM,91 nm,0.214,self-organization in lipid-based nanoparticles / particle size [5]: can self-organize/assemble in lipid-based nanoparticles
CCCCCCCC(=O)N[C@H](C(=O)N[C@@H](C)C(=O)Nc1ccc(CSP2(=O)OC[C@H]3O[C@@H](n4cnc5c(N)ncnc54)[C@H](F)[C@@H]3OP(=O)(S)OC[C@H]3O[C@@H](n4cnc5c(O)ncnc54)[C@H](F)[C@@H]3O2)cc1)C(C)C (stereo partly drawn) [CL840],0.13 µM,168.9 nm,0.08,
CCCCCCCC(=O)N[C@H](C(=O)N[C@@H](C)C(=O)Nc1ccc(CSP2(=O)OC[C@H]3O[C@@H](n4cnc5c(N)ncnc54)[C@H](F)[C@@H]3OP(=O)(O)OC[C@H]3O[C@@H](n4cnc5c(O)ncnc54)[C@H](F)[C@@H]3O2)cc1)C(C)C (stereo partly drawn) [CL841],3.03 µM,264.3 nm,0.475,
CCCCCCCC(=O)N[C@H](C(=O)N[C@@H](C)C(=O)Nc1ccc(CSP2(=O)OC[C@H]3O[C@@H](n4cnc5c(O)ncnc54)[C@H](F)[C@@H]3OP(=O)(SCc3ccc(NC(=O)[C@H](C)NC(=O)[C@@H](NC(=O)CCCCCCC)C(C)C)cc3)OC[C@H]3O[C@@H](n4cnc5c(N)ncnc54)[C@H](F)[C@@H]3O2)cc1)C(C)C (stereo partly drawn) [CL842],1.4 µM,184 nm,0.086,self-organization in lipid-based nanoparticles / particle size [5]: can self-organize/assemble in lipid-based nanoparticles
CCCCCCCCCCCCCCCC(=O)N[C@H](C(=O)N[C@@H](CCCNC(N)=O)C(=O)Nc1ccc(CSP2(=O)OC[C@H]3O[C@@H](n4cnc5c(N)ncnc54)[C@H](F)[C@@H]3OP(=O)(O)OC[C@H]3O[C@@H](n4cnc5c(O)ncnc54)C[C@@H]3O2)cc1)C(C)C (stereo partly drawn) [CL848],0.11 µM,84.3 nm,0.18,ISG activity compared with unmodified parental CDN [6]: higher ISG activity than the unmodified parental CDN; ISG activity compared with unmodified parental CDN ([3]; THP1-Dual cells): higher ISG activity than the unmodified parental CDN
CCCCCCCCCCCCCCCC(=O)N[C@H](C(=O)N[C@@H](C)C(=O)Nc1ccc(CSP2(=O)OC[C@H]3O[C@@H](n4cnc5c(N)ncnc54)[C@H](F)[C@@H]3OP(=O)(O)OC[C@H]3O[C@@H](n4cnc5c(O)ncnc54)[C@H](F)[C@@H]3O2)cc1)C(C)C (stereo partly drawn) [CL849],,152.4 nm,0.56,ISG activity compared with unmodified parental CDN [6]: higher ISG activity than the unmodified parental CDN; ISG activity compared with unmodified parental CDN ([3]; THP1-Dual cells): higher ISG activity than the unmodified parental CDN
CCCCCCCCCCCCCCCC(=O)N[C@H](C(=O)N[C@@H](CCCNC(N)=O)C(=O)Nc1ccc(CSP2(=O)OC[C@H]3O[C@@H](n4cnc5c(N)ncnc54)[C@H](F)[C@@H]3OP(=O)(S)OC[C@H]3O[C@@H](n4cnc5c(O)ncnc54)[C@H](F)[C@@H]3O2)cc1)C(C)C (stereo partly drawn) [CL853],0.14 µM,155.9 nm,0.188,ISG activity compared with unmodified parental CDN [6]: higher ISG activity than the unmodified parental CDN; ISG activity compared with unmodified parental CDN ([3]; THP1-Dual cells): higher ISG activity than the unmodified parental CDN
CCCCCCCCCCCCCC(=O)OC(CCCCCCCCCCC)CC(=O)N[C@H](C(=O)N[C@@H](CCCNC(N)=O)C(=O)Nc1ccc(CSP2(=O)OC[C@H]3O[C@@H](n4cnc5c(N)ncnc54)[C@H](F)[C@@H]3OP(=O)(O)OC[C@H]3O[C@@H](n4cnc5c(O)ncnc54)[C@H](F)[C@@H]3O2)cc1)C(C)C (stereo partly drawn) [CL860],0.009 µM,33 nm,0.248,"self-organization in lipid-based nanoparticles / particle size [5]: can self-organize/assemble in lipid-based nanoparticles; also recorded: the size tends to be smaller, around the size of Small Unilamellar Vesicle"
CCCCCCCCCCCCCC(=O)OC(CCCCCCCCCCC)CC(=O)N[C@H](C(=O)N[C@@H](CCCNC(N)=O)C(=O)Nc1ccc(CSP2(=O)OC[C@H]3O[C@@H](n4cnc5c(N)ncnc54)[C@H](F)[C@@H]3OP(=O)(S)OC[C@H]3O[C@@H](n4cnc5c(O)ncnc54)[C@H](F)[C@@H]3O2)cc1)C(C)C (stereo partly drawn) [CL861],0.01 µM,36.8 nm,0.183,"self-organization in lipid-based nanoparticles / particle size [5]: can self-organize/assemble in lipid-based nanoparticles; also recorded: the size tends to be smaller, around the size of Small Unilamellar Vesicle"
CCCCCCCCCCCCCCCC(=O)N[C@H](C(=O)N[C@@H](C)C(=O)Nc1ccc(CSP2(=O)OC[C@H]3O[C@@H](n4cnc5c(N)ncnc54)[C@H](F)[C@@H]3OP(=O)(S)OC[C@H]3O[C@@H](n4cnc5c(O)ncnc54)[C@H](F)[C@@H]3O2)cc1)C(C)C (stereo partly drawn) [CL863],0.15 µM,106.6 nm,0.416,ISG activity compared with unmodified parental CDN [6]: higher ISG activity than the unmodified parental CDN; ISG activity compared with unmodified parental CDN ([3]; THP1-Dual cells): higher ISG activity than the unmodified parental CDN
Atezolizumab,,,,Antigen binding (% of anti PDL1 @ 10 μg/mL) [7]: 100%; IFN activity @ 50 μg/mL in WBA (% of CL656 @ 1 μM) [2]: 0%
